Reference: patent US12435056B2, “N-lipoic-amino acid or peptide, derivatives and their uses” (NEOSTRATA COMPANY, INC., priority 2016, dated 2025)
Entries after “also recorded” stand apart in the source; their conditions may differ.

How the values were obtained:
[1] = system: normal human epidermal melanocytes; assay: Cell viability / L20 toxicity assay (Cell Titer 96 Aqueous One Solution); format: cell-based
Method: (§1) L20 is a glycinamide derivative of lipoic acid and was treated on normal human epidermal melanocytes at different doses for 48 h. Doses more than 0.05% L20 appeared to have moderate toxicity (FIG. 1a). We determined the ability of L20 to inhibit melanin synthesis in melanocyte cultures. L20 was used at a non-toxic dose of 0.001% for 7 days (FIG. 1b), their treatment was carried on consecutive days. After a week of treatment, the melanin was extracted and quantified using a melanin standard curve.
Cell culture: Normal human epidermal melanocytes (Lonza, Walkersville, MA) were grown in special melanocyte media MGM4 with supplements (Lonza, Walkersville, MA). Cells were plated and treated with different doses of L20 for 48 h. L20 was initially dissolved in DMSO (100%) and serial dilution were made in media. The stock was diluted a 1000 fold, to have less than […] DMSO in final solution. Microscopic images were taken using 10× magnification. Normal human dermal fibroblasts (Lonza, Walkersville, MA) were grown in special fibroblast growth media (Lonza, Walkersville, MA). […] To test cell viability, Cell Titer 96® Aqueous One Solution Cell Proliferation Assay was used and absorbance was measured colorimetrically at 490 nm using Tecan microplate reader.

[2] = system: normal neonatal human epidermal melanocytes; assay: Melanin reduction assay in melanocyte cultures; format: cell-based
Method: as §1
Melanin Reduction assay: Normal human epidermal melanocytes were treated with control or L20 for 7 days, and L20 was replaced on consecutive days. Cells were collected on the 7th day and maintained in Solvable (Perkin Elmer, Akron, OH) overnight at 65 degrees overnight. In parallel, melanin (Sigma, St. Louis, MO) standards were made in Solvable and treated similarly to the samples. Melanin content was then quantified colorimetrically using a Tecan microplate reader at 490 nm.

[3] = system: MelanoDerm keratinocyte-melanocyte co-cultures; assay: MelanoDerm study: melanin content and skin lightening in 3D keratinocyte-melanocyte co-cultures; format: cell-based, human; settings: for decrease of melanin content compared to control: darkly pigmented MelanoDerm
Method: (§2) MelanoDerms are co-culture models of keratinocytes and melanocytes and were used to test the ability of L20 as an anti-melanogenic compound. MelanoDerms were derived from a normal adult with darkly pigmented skin. These tissues were treated for two weeks on consecutive days with different doses of L20. One set of cultures were used for regression study, where it was taken off L20 after a week of treatment. Two weeks after treatment, the tissues were tested for melanin content and cell viability (FIG. 2a). […] The melanin content was assayed using a melanin standard curve.
(§3) MelanoDerm Study: MelanoDerms study was performed as per company instructions (Mattek, Ashland, MA). MelanoDerm tissues were derived from darkly pigmented skin type. The tissues were stabilized for 24 h and then treated with different doses of L20 (25 ul) in WEP modified vehicle. The MelanoDerms were treated for 2 weeks on consecutive days. Microscopic images were taken every other day. After two weeks, MTT assay was performed using Cell Titer 96® Aqueous One Solution and melanin content was assayed as mentioned in the protocol.

[4] = system: MelanoDerm keratinocyte-melanocyte co-cultures; assay: MelanoDerm survival (MTT assay); format: cell-based, human; settings: L20 0.5%, two weeks
Method: as §2, §3

[5] = system: procollagen in EpiDerm-FT fibroblast-keratinocyte co-cultures; assay: Procollagen ELISA in EpiDerm-FT tissue; format: cell-based, human; settings: L20 1% in WEP vehicle, 48 h, p<0.02, FIG. 3
Method: Dermal fibroblast plays an important role in photo-aging and skin homeostasis. We determined if L20 had any anti-aging benefit using dermal fibroblasts. Normal human EpiDerm-FT tissue was used in the study. The Epiderm-FT consists of a fully differentiated epidermal and dermal skin layers. It also has 10-15 layers of stratum corneum and also basal, spinous and granular layers. The tissues were treated with vehicle control and L20 (1%), for 48 h. The tissues were used to measure the expression of procollagen using ELISA assay. The levels of procollagen were normalized to total protein.
L20 was prepared as 1% solution in WEP vehicle consisting of water, ethanol and propylene glycol at native pH. […] The tissue samples were digested using cell lysis buffer and the expression levels of procollagen protein were determined. Procollagen was quantified using standard ELISA technique (Takara Bio Inc.).
Epiderm Study: Epiderm-FT (Mattek, Ashland, MA) was used for the study, derived from neonatal foreskin. […] The cell lysate was analyzed for procollagen using ELISA (Takara, Shiga, Japan) as per instructions and normalized to total protein.

Structure (SMILES)	non-toxic dose in L20 toxicity assay ([1]; different doses, absorbance at 490 nm) [%]	doses with moderate toxicity ([1]; human, 48 h)	melanin extracted and quantified from melanocyte cultures ([2]; L20 0.001%, 7 days, versus untreated and DMSO control, FIG. 1c)	melanin synthesis ([2]; normal neonatal human epidermal melanocytes, FIGS. 1a-c)	visual skin-lightening effect on melanoderms ([3]; 0.5% and 1%, two weeks, FIG. 2b)	regression study: reversibility of melanin inhibition after removal of L20 ([3]; 0.5% dose group, taken off L20 after one week of treatment)	microscopic observation of melanin ([3]; 24 h after the initial treatment)	decrease of melanin content compared to control ([3]; L20 0.1%, two weeks) [%]	decrease of melanin content compared to control ([3]; L20 0.5%, two weeks) [%]	decrease of melanin content compared to control ([3]; L20 1%, two weeks) [%]	melanin synthesis ([3]; normal adult human Melanoderm 3D co-cultures, FIGS. 2a-d)	toxicity in MelanoDerm (cell viability) [4]	procollagen production versus vehicle control, normalized to total protein [5]	decrease of melanin content ([3]; positive control, dose not given, two weeks, MelanoDerm) [%]
NC(=O)CNC(=O)CCCCC1CCSS1 (centres unmarked) [L20, N-lipoic glycinamide]	≤ 0.001	more than 0.05%	no detectable melanin; also recorded: did not have any measureable melanin	significantly blocks melanin synthesis	significant skin-lightening effect	reversible inhibition of melanin synthesis	decreased melanin; also recorded: inhibited melanin synthesis	44	56	60	significantly blocks melanin synthesis	non-toxic	significantly increased; also recorded: significantly induces procollagen synthesis; also recorded: induced pro-collagen	
O=c1cc(CO)occ1O [Kojic Acid, reference compound]														27
